According to PubChem BioAssay AID2060904 (Molecular Pharmacology Branch, DTP, NCI, 2025):
pIC50: −log10 of the molar value. One block for each compound: values may come before it.

Test system: 349418-098-R-PDC complex spheroid viability
Assay: Anticancer human tumor 349418-098-R-PDC patient-derived lung adenocarcinoma cell line growth inhibition [RAS]
Details: for pIC50: curve of first compound; for viability, T/C: stronger effect = lower value
Procedure, shortened: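 Tumour cells grown as complex spheroids with HUVEC endothelial cells and mesenchymal stem cells, treated with RAS pathway inhibitor combinations. Each agent spans half-log steps from near clinical Cmax, or 10 microM where Cmax is unknown.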

[1] = second compound 0.00316 µM, first compound 0.0316 µM
[2] = second compound 0.00316 µM, first compound 0.1 µM
[3] = second compound 0.00316 µM, first compound 0.316 µM
[4] = second compound 0.00316 µM, first compound 1 µM
[5] = second compound 0.00316 µM, first compound 3.16 µM
[6] = second compound 0.00316 µM, first compound 10 µM
[7] = second compound 0.01 µM, first compound 0.0316 µM
[8] = second compound 0.01 µM, first compound 0.1 µM
[9] = second compound 0.01 µM, first compound 0.316 µM
[10] = second compound 0.01 µM, first compound 1 µM
[11] = second compound 0.01 µM, first compound 3.16 µM
[12] = second compound 0.01 µM, first compound 10 µM
[13] = second compound 0.0316 µM, first compound 0.0316 µM
[14] = second compound 0.0316 µM, first compound 0.1 µM
[15] = second compound 0.0316 µM, first compound 0.316 µM
[16] = second compound 0.0316 µM, first compound 1 µM
[17] = second compound 0.0316 µM, first compound 3.16 µM
[18] = second compound 0.0316 µM, first compound 10 µM
[19] = second compound 0.1 µM, first compound 0.0316 µM
[20] = second compound 0.1 µM, first compound 0.1 µM
[21] = second compound 0.1 µM, first compound 0.316 µM
[22] = second compound 0.1 µM, first compound 1 µM
[23] = second compound 0.1 µM, first compound 3.16 µM
[24] = second compound 0.1 µM, first compound 10 µM
[25] = second compound 0.316 µM, first compound 0.0316 µM
[26] = second compound 0.316 µM, first compound 0.1 µM
[27] = second compound 0.316 µM, first compound 0.316 µM
[28] = second compound 0.316 µM, first compound 1 µM
[29] = second compound 0.316 µM, first compound 3.16 µM
[30] = second compound 0.316 µM, first compound 10 µM
[31] = second compound 1 µM, first compound 0.0316 µM
[32] = second compound 1 µM, first compound 0.1 µM
[33] = second compound 1 µM, first compound 0.316 µM
[34] = second compound 1 µM, first compound 1 µM
[35] = second compound 1 µM, first compound 3.16 µM
[36] = second compound 1 µM, first compound 10 µM
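Also: spheroids exposed to compound for seven days before viability readout.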

pIC50 (second compound 0.00316 µM): 7.14
pIC50 (second compound 0.01 µM): 6.83
pIC50 (second compound 0.0316 µM): 6.71
pIC50 (second compound 0.1 µM): 6.94
pIC50 (second compound 0.316 µM): 7.24
pIC50 (second compound 1 µM): 6.89
SMILES: CC(Nc1ccc2c(c1)OCCn1cc(N3C(=O)OCC3C(F)F)nc1-2)C(N)=O (stereo unspecified) + C=CC(=O)N1CCN(c2nc(OCC3CCCN3C)nc3c(F)c(-c4nc(N)cc(C)c4C(F)(F)F)c(Cl)cc23)C(C)C1
viability, T/C [1]: 66%
viability, T/C [2]: 44.4%
viability, T/C [3]: 23.6%
viability, T/C [4]: 16.7%
viability, T/C [5]: 14.8%
viability, T/C [6]: 9.03%
viability, T/C [7]: 82%
viability, T/C [8]: 57.6%
viability, T/C [9]: 36.1%
viability, T/C [10]: 17.8%
viability, T/C [11]: 14.9%
viability, T/C [12]: 8.95%
viability, T/C [13]: 91%
viability, T/C [14]: 69.8%
viability, T/C [15]: 36%
viability, T/C [16]: 17.1%
viability, T/C [17]: 12.2%
viability, T/C [18]: 13%
viability, T/C [19]: 46.2%
viability, T/C [20]: 58.9%
viability, T/C [21]: 30%
viability, T/C [22]: 19.3%
viability, T/C [23]: 17.6%
viability, T/C [24]: 11.4%
viability, T/C [25]: 55.8%
viability, T/C [26]: 44.9%
viability, T/C [27]: 30.3%
viability, T/C [28]: 19.4%
viability, T/C [29]: 14%
viability, T/C [30]: 10.7%
viability, T/C [31]: 61.2%
viability, T/C [32]: 57.3%
viability, T/C [33]: 28.4%
viability, T/C [34]: 24.4%
viability, T/C [35]: 16.6%
viability, T/C [36]: 11.3%

pIC50 (second compound 0.00316 µM): 7.76
pIC50 (second compound 0.01 µM): 7.63
pIC50 (second compound 0.0316 µM): 7.52
pIC50 (second compound 0.1 µM): 7.95
pIC50 (second compound 0.316 µM): 7.68
pIC50 (second compound 1 µM): 7.85
SMILES: CCN1CCN(Cc2ccc(Nc3ncc(F)c(-c4cc(F)c5nc(C)n(C(C)C)c5c4)n3)nc2)CC1 + C=CC(=O)N1CCN(c2nc(OCC3CCCN3C)nc3c(F)c(-c4nc(N)cc(C)c4C(F)(F)F)c(Cl)cc23)C(C)C1
viability, T/C (second compound 0.00316 µM, first compound 0.00316 µM): 77.6%
viability, T/C (second compound 0.00316 µM, first compound 0.01 µM): 62.2%
viability, T/C [1]: 35.9%
viability, T/C [2]: 25.7%
viability, T/C [3]: 20.9%
viability, T/C [4]: 15.7%
viability, T/C (second compound 0.01 µM, first compound 0.00316 µM): 89.4%
viability, T/C (second compound 0.01 µM, first compound 0.01 µM): 71.3%
viability, T/C [7]: 43.4%
viability, T/C [8]: 22.1%
viability, T/C [9]: 22.5%
viability, T/C [10]: 17%
viability, T/C (second compound 0.0316 µM, first compound 0.00316 µM): 78.8%
viability, T/C (second compound 0.0316 µM, first compound 0.01 µM): 96.2%
viability, T/C [13]: 48.4%
viability, T/C [14]: 22.5%
viability, T/C [15]: 21.6%
viability, T/C [16]: 17.5%
viability, T/C (second compound 0.1 µM, first compound 0.00316 µM): 72.8%
viability, T/C (second compound 0.1 µM, first compound 0.01 µM): 51.2%
viability, T/C [19]: 35.6%
viability, T/C [20]: 20.6%
viability, T/C [21]: 20.8%
viability, T/C [22]: 17.4%
viability, T/C (second compound 0.316 µM, first compound 0.00316 µM): 82.8%
viability, T/C (second compound 0.316 µM, first compound 0.01 µM): 74%
viability, T/C [25]: 35.2%
viability, T/C [26]: 34.3%
viability, T/C [27]: 25.2%
viability, T/C [28]: 18.1%
viability, T/C (second compound 1 µM, first compound 0.00316 µM): 61.5%
viability, T/C (second compound 1 µM, first compound 0.01 µM): 49.1%
viability, T/C [31]: 46.7%
viability, T/C [32]: 29%
viability, T/C [33]: 22.1%
viability, T/C [34]: 19.1%

pIC50 (second compound 0.00316 µM): 6.02
pIC50 (second compound 0.01 µM): 5.82
pIC50 (second compound 0.0316 µM): 5.69
pIC50 (second compound 0.1 µM): 5.66
pIC50 (second compound 0.316 µM): 5.51
pIC50 (second compound 1 µM): 5.41
SMILES: C[C@@H](NC(=O)c1ncnc(N)c1Cl)c1ncc(C(=O)Nc2cc(C(F)(F)F)c(Cl)cn2)s1 + C=CC(=O)N1CCN(c2nc(OCC3CCCN3C)nc3c(F)c(-c4nc(N)cc(C)c4C(F)(F)F)c(Cl)cc23)C(C)C1
viability, T/C [1]: 102%
viability, T/C [2]: 124%
viability, T/C [3]: 88.9%
viability, T/C [4]: 50%
viability, T/C [5]: 39%
viability, T/C [6]: 32.6%
viability, T/C [7]: 78.6%
viability, T/C [8]: 115%
viability, T/C [9]: 68.8%
viability, T/C [10]: 59.1%
viability, T/C [11]: 41.3%
viability, T/C [12]: 31.3%
viability, T/C [13]: 108%
viability, T/C [14]: 113%
viability, T/C [15]: 65.1%
viability, T/C [16]: 62.8%
viability, T/C [17]: 50.1%
viability, T/C [18]: 29.6%
viability, T/C [19]: 80.6%
viability, T/C [20]: 106%
viability, T/C [21]: 85.3%
viability, T/C [22]: 60.9%
viability, T/C [23]: 46.8%
viability, T/C [24]: 41%
viability, T/C [25]: 60.6%
viability, T/C [26]: 113%
viability, T/C [27]: 85.7%
viability, T/C [28]: 67.1%
viability, T/C [29]: 52.8%
viability, T/C [30]: 31.2%
viability, T/C [31]: 65.5%
viability, T/C [32]: 111%
viability, T/C [33]: 84.2%
viability, T/C [34]: 64.1%
viability, T/C [35]: 58.4%
viability, T/C [36]: 30%
